Paper PMC6199744, “Development of Chemical Proteomics for the Folateome and Analysis of the Kinetoplastid Folateome” (ACS Infectious Diseases, 2018)

System: L. major lysate proteins
Experiment: Multitargeted bead mixture chemoproteomics, single concentration competition, proteome-wide
Assay type: binding
Conditions: for fold change: vehicle control = 1

Nc1nc2[nH]cc(CCc3ccc(C(=O)N[C@@H](CCC(=O)O)C(=O)O)cc3)c2c(=O)[nH]1 [PTX, pemetrexed]
fold change (protein LMJF.15.0040 HY[…], CONSERVED (Possible lysine decarboxylase, putative)): 0.69 | fold change vs vehicle control (protein LMJF.15.0690 HY[…], CONSERVED): 1.2 | fold change (protein LMJF.15.1010 GLUTAMATE DEHYDROGENASE): 1 | fold change (protein LMJF.15.1190 HY[…], CONSERVED (cyclic nucleotide-binding domain containing protein, putative)): 0.98 | fold change vs vehicle control (protein LMJF.16.0520 HY[…], CONSERVED): 0.76 | fold change vs vehicle control (protein LMJF.16.0540 ASPARTATE CARBAMOYLTRANSFERASE, PUTATIVE): 0.92 | fold change relative to vehicle control (protein LMJF.16.0760, TRANSALDOLASE, PUTATIVE): 1.18 | fold change vs vehicle control (protein LMJF.16.0940 DYNEIN LIGHT CHAIN, PUTATIVE): 1.1 | fold change relative to vehicle control (protein LMJF.16.1180, COATOMER DELTA SUBUNIT-LIKE PROTEIN): 1.15 | fold change relative to vehicle control (protein LMJF.16.1320, CYTOCHROME C, PUTATIVE): 1.56 | fold change relative to vehicle control (protein LMJF.16.1420, HY[…], CONSERVED): 1.13 | fold change relative to vehicle control (protein LMJF.17.0081, […] 1-ALPHA): 1.06 | fold change relative to vehicle control (protein LMJF.18.0270, GLYCOGEN SYNTHASE KINASE, PUTATIVE): 0.92 | fold change (protein LMJF.18.0580 P[…]-COA HYDRATASE, PUTATIVE): 0.93 | fold change relative to vehicle control (protein LMJF.18.0680, CITRATE SYNTHASE, PUTATIVE): 1.08 | fold change vs vehicle control (protein LMJF.18.1010 DYNEIN LIGHT CHAIN 2B, CYTOPLASMIC, PUTATIVE): 1.03 | fold change vs vehicle control (protein LMJF.18.1210 PROLYL-TRNA SYNTHETASE, PUTATIVE,BI[…]-TRNA SYNTHETASE, PUTATIVE): 0.97 | fold change vs vehicle control (protein LMJF.18.1370 HEAT SHOCK PROTEIN, PUTATIVE): 1.02 | fold change (protein LMJF.19.0200 ADP,ATP CARRIER PROTEIN 1, MIT[…], PUTATIVE): 1.02 | fold change vs vehicle control (protein LMJF.19.1120 […]-ATP-ASE SUBUNIT, PUTATIVE): 0.91 | fold change vs vehicle control (protein LMJF.19.1160 HY[…], CONSERVED): 0.92 | fold change vs vehicle control (protein LMJF.19.1560 INOSINE-5'-MONOPHOSPHATE DEHYDROGENASE): 0.92 | fold change relative to vehicle control (protein LMJF.19.1620, POTASSIUM VOLTAGE-GATED CHANNEL, PUTATIVE): 1.13 | fold change vs vehicle control (protein LMJF.20.1280 SMALL MYR[…] 4, PUTATIVE): 0.89 | fold change (protein LMJF.21.0810 METHIONYL-TRNA SYNTHETASE, PUTATIVE): 0.98 | fold change (protein LMJF.21.1450 ARGININE N-METHYLTRANSFERASE, TYPE II, PUTATIVE): 0.98 | fold change vs vehicle control (protein LMJF.21.1830 […] 5 SUBUNIT, PUTATIVE,20S […] ALPHA 5, (PUTATIVE)): 0.96 | fold change (protein LMJF.22.0230 AMINO ACID PERMEASE, PUTATIVE): 1.09 | fold change vs vehicle control (protein LMJF.22.0570 […] SUBUNIT 1, PUTATIVE): 1.04 | fold change vs vehicle control (protein LMJF.22.0730 HY[…], CONSERVED): 0.96 | fold change (protein LMJF.22.0770 NADH-CYTOCHROME B5 REDUCTASE, PUTATIVE): 0.82 | fold change relative to vehicle control (protein LMJF.23.0020, HY[…], CONSERVED): 1.35 | fold change relative to vehicle control (protein LMJF.23.0040, PEROXIDOXIN): 0.99 | fold change relative to vehicle control (protein LMJF.23.0080, HY[…], CONSERVED): 0.97 | fold change (protein LMJF.23.0210 ATP-BINDING CASSETTE PROTEIN SUBFAMILY C, MEMBER 1, PUTATIVE): 0.87 | fold change (protein LMJF.23.0370 CYTOCHROME C OXIDASE SUBUNIT 10, PUTATIVE): 0.9 | fold change relative to vehicle control (protein LMJF.23.0540, ACETYL-COA SYNTHETASE, PUTATIVE): 1.05 | fold change vs vehicle control (protein LMJF.23.0560 KINESIN, PUTATIVE): 1.12 | fold change vs vehicle control (protein LMJF.23.1410 HY[…], CONSERVED): 0.97 | fold change relative to vehicle control (protein LMJF.24.0070, HY[…], CONSERVED): 1.03 | fold change (protein LMJF.24.0140 ANKYRIN/TPR REPEAT PROTEIN): 0.86 | fold change (protein LMJF.24.0400 HY[…], CONSERVED (TPR repeat, putative)): 0.87 | fold change relative to vehicle control (protein LMJF.24.1510, IGE-DEPENDENT HISTAMINE-RELEASING FACTOR, PUTATIVE): 1.15 | fold change relative to vehicle control (protein LMJF.24.1630, SUCCINATE DEHYDROGENASE FLAVOPROTEIN, PUTATIVE): 0.98 | fold change relative to vehicle control (protein LMJF.24.2060, TRANSKETOLASE): 0.96 | fold change relative to vehicle control (protein LMJF.25.0010, BETA GALACTOFURANOSYL TRANSFERASE): 1.17 | fold change relative to vehicle control (protein LMJF.25.0910, C[…]): 1.55 | fold change vs vehicle control (protein LMJF.25.1130 CYTOCHROME C OXIDASE VII, PUTATIVE): 0.92 | fold change relative to vehicle control (protein LMJF.25.1180, ATPASE BETA SUBUNIT, PUTATIVE): 1 | fold change vs vehicle control (protein LMJF.25.1610 HY[…], CONSERVED): 0.99 | fold change vs vehicle control (protein LMJF.25.1620 HY[…], CONSERVED): 1.01 | fold change (protein LMJF.25.2340 SERINE/THREONINE-PROTEIN KINASE, PUTATIVE,PROTEIN KINASE, PUTATIVE): 0.74 | fold change relative to vehicle control (protein LMJF.26.0630, HY[…], CONSERVED): 0.9 | fold change vs vehicle control (protein LMJF.26.1240 HEAT SHOCK PROTEIN 70-RELATED PROTEIN): 0.88 | fold change (protein LMJF.26.1710 CYTOCHROME C OXIDASE SUBUNIT V, PUTATIVE): 0.94 | fold change vs vehicle control (protein LMJF.26.2480 CDP-DIACYLGLYCEROL--INOSITOL 3-PHOSPHATIDYLTRANSFERASE, PUTATIVE): 1.06 | fold change vs vehicle control (protein LMJF.26.2560 HY[…], CONSERVED): 0.66 | fold change vs vehicle control (protein LMJF.27.0190 […] 7 SUBUNIT, PUTATIVE): 0.91 | fold change (protein LMJF.27.0650 HY[…], CONSERVED): 0.99 | fold change (protein LMJF.27.0700 HY[…], CONSERVED): 0.86 | fold change vs vehicle control (protein LMJF.27.0760 GTP-binding protein homologue): 1.01 | fold change vs vehicle control (protein LMJF.27.1060 CYSTEINE DESULFURASE, PUTATIVE): 0.96 | fold change vs vehicle control (protein LMJF.27.1110 MIT[…] BINDING PROTEIN 1,GBP21, MRP1): 1.06 | fold change (protein LMJF.27.1250 HY[…], CONSERVED (Serine-threonine kinase receptor-associated protein, putative)): 0.88 | fold change relative to vehicle control (protein LMJF.27.1390, 60S ACIDIC RIBOSOMAL SUBUNIT PROTEIN, PUTATIVE): 1.07 | fold change (protein LMJF.27.1460 […]-ATP-ASE SUBUNIT 3, PUTATIVE): 0.89
